# Laboratory results: patent publication US11685762B2, “Aqueous suspension compositions, formulations, and water dispersible dry compositions comprising 16alpha-bromo-3beta-hydroxy-5alpha-androstan-17-ketone and hydrates, derivatives, and analogs thereof” (SD Chem, Inc., priority 2019, dated 2023)
# Marks after values point to notes of the source that are not given here.
# Columns and labels:
# [1] = tested on: BALB/c male mice sensitized and challenged with OVA; assay: Mouse asthma model (OVA challenge, bronchioalveolar lavage cell count); assay type: in vivo; details: 0.2 mg/kg per day
# Procedure: In this experiment, the BEA formulation is prepared based present invention formulation (Formulation of Composition 1 in Example 1).
# 18 BALB/c male mice, 8 weeks old are sensitized with two intraperitoneal (IP) administrations, 5 days apart, of 10 μg chicken egg ovalbumin (OVA, grade V; Sigma) emulsified in 1 mg of aluminum hydroxide (Thermo Scientific, Rockford, Ill., USA) in a total volume of 100 μl. Then, after one month mice are challenged via intratracheal (IT) administration of 0.75% OVA. BEA formulation is administered at 0.2 mg/kg dose in an injection volume of 0.1 mL in two different routes of administration (intratracheal and subcutaneous (SC)), one hour after the OVA challenge and one dose per day for up to 7 days. Then, animals are euthanized by exsanguination under pentobarbital anesthesia. The bronchioalveolar lavage (BAL) of the mice are used to determine the total counts of inflammatory cells. Control mice receive saline solution intraperitoneally (IP). All experiments are performed in accordance with INCMN Mexico City regulations. Two independent experiments are performed.
# Taenia crassiceps = details: mice, administration prior to infection with cysticerci; cited from earlier work
# Vk*MYC Mice = assay: Anti-myeloma activity in Vk*MYC mice (M-Spike); details: 15 mg/kg/day
# Procedure: 3 Vk*MYC Mice are evaluated. […] The M-Spike value are assessed at day 7 and 14 respectively. […] The M-Spike value are assessed at day 7, 14 and 21 respectively.
# Entamoeba histolytica = details: hamsters; cited from earlier work
# [2] = tested on: ICR mice with colitis induced by DSS; assay: DSS induced mouse colitis model; assay type: in vivo; details: for White blood cell count: Mean ± SD, n = 12; for Macrohage cell count: abdominal macrophages
# Procedure: Experimental animals: 72 ICR mice, male and female, 25-29 g body weight before starting the experiment.
# Subgrouping: The experimental animals are divided into 6 groups at random, 12 mice in each group: physiological saline group, high dose group (40 mg/kg), moderate dose group (20 mg/kg), low dose group (10 mg/kg) of BEA obtained in Formulation/Composition 1 of the present invention, Dexamethasone (0.1 mg/kg), DSS model group.
# Model replication: The experimental mice are […] 3% DSS and fed with water routinely for 7 days, the colitis model is duplicated.
# Administration of drug: the mice are injected with the test drug on the same day when DSS are injected.
# Experimental animal management: the general physical condition, loose stools, and bloody stools are observed every day.
# The fecal occult blood is tested 3 days after injected with drug. The blood tests are done on day 7. The macrophages are counted and their IL-6 and TNF-alpha are determined. Their inflammation and ulcer level are observed. The colon content is taken to smear, stain and then determined the G+/G−. The thymus, spleen, liver are taken to weight and calculate the organ index. Sections of colon are sent for pathological examination.
smiles,measurement,setting,value
"C[C@]12CC[C@H](O)C[C@@H]1CC[C@@H]1[C@@H]2CC[C@]2(C)C(=O)[C@H](Br)C[C@@H]12 [BEA, 16alpha-bromo-3beta-hydroxy-5alpha-androstan-17-ketone]",Inflammatory Cell Number in bronchioalveolar lavage,"[1]; IT, Day 3",4.61 × 10^4
same,Inflammatory Cell Number in bronchioalveolar lavage,"[1]; IT, Day 7",5.99 × 10^4
same,Inflammatory Cell Number in bronchioalveolar lavage,"[1]; SC, Day 3",4.07 × 10^4
same,Inflammatory Cell Number in bronchioalveolar lavage,"[1]; SC, Day 7",1.06 × 10^5
same,reduction of parasite load compared with controls,Taenia crassiceps,50%
same,reduction of M-Spike,Vk*MYC Mice,40%
same,reduction on the development of amoebic liver abscesses,Entamoeba histolytica,20%
same,Final weight,[2]; BEA 10 mg/kg,26.5 ± 2.6 g
same,IL-6/TNF-alpha,[2]; BEA 10 mg/kg,9.5 ± 7.9
same,IL-6 level,[2]; BEA 10 mg/kg,551.7 ± 391.4 pg/mL
same,Spleen index,[2]; BEA 10 mg/kg,5.7 ± 2.0 mg/g
same,TNFa level,[2]; BEA 10 mg/kg,49.5 ± 23.2 pg/mL
same,The length of colon,[2]; BEA 10 mg/kg,10.4 ± 1.0 cm
same,Thymus index,[2]; BEA 10 mg/kg,2.7 ± 1.0 mg/g
same,Weight before fasting,[2]; BEA 10 mg/kg,28.2 ± 2.8 g
same,number of animals with bloody stools,[2]; BEA 10 mg/kg,5/12
same,number of animals with fecal occult blood (3rd day),[2]; BEA 10 mg/kg,7/12
same,White blood cell count,[2]; BEA 10 mg/kg,5.9 ± 1.4 X10^9
same,Macrohage cell count,[2]; BEA 10 mg/kg,28.3 ± 8.9 X10^5
same,Final weight,[2]; BEA 20 mg/kg,25.7 ± 1.8 g
same,IL-6/TNF-alpha,[2]; BEA 20 mg/kg,16.8 ± 8.0
same,IL-6 level,[2]; BEA 20 mg/kg,589.1 ± 227.1 pg/mL
same,Spleen index,[2]; BEA 20 mg/kg,5.9 ± 1.0 mg/g
same,TNFa level,[2]; BEA 20 mg/kg,49.1 ± 37.0 pg/mL
same,The length of colon,[2]; BEA 20 mg/kg,10.5 ± 0.9 cm
same,Thymus index,[2]; BEA 20 mg/kg,2.9 ± 0.7 mg/g
same,Weight before fasting,[2]; BEA 20 mg/kg,27.7 ± 2.5 g
same,number of animals with bloody stools,[2]; BEA 20 mg/kg,5/12
same,number of animals with fecal occult blood (3rd day),[2]; BEA 20 mg/kg,7/12
same,White blood cell count,[2]; BEA 20 mg/kg,5.2 ± 1.5# X10^9
same,Macrohage cell count,[2]; BEA 20 mg/kg,32.3 ± 1.3# X10^5
same,Final weight,[2]; BEA 40 mg/kg,25.6 ± 1.7 g
same,IL-6/TNF-alpha,[2]; BEA 40 mg/kg,12.7 ± 8.6
same,IL-6 level,[2]; BEA 40 mg/kg,370.8 ± 219.1 pg/mL
same,Spleen index,[2]; BEA 40 mg/kg,6.4 ± 1.2 mg/g
same,TNFa level,[2]; BEA 40 mg/kg,31.4 ± 15.1 pg/mL
same,The length of colon,[2]; BEA 40 mg/kg,9.2 ± 0.8 cm
same,Thymus index,[2]; BEA 40 mg/kg,3.1 ± 0.7 mg/g
same,Weight before fasting,[2]; BEA 40 mg/kg,27.6 ± 1.7 g
same,number of animals with bloody stools,[2]; BEA 40 mg/kg,6/12
same,number of animals with fecal occult blood (3rd day),[2]; BEA 40 mg/kg,6/12
same,White blood cell count,[2]; BEA 40 mg/kg,5.9 ± 2.9 X10^9
same,Macrohage cell count,[2]; BEA 40 mg/kg,24.6 ± 3.4 X10^5
"C[C@@H]1C[C@H]2[C@@H]3CCC4=CC(=O)C=C[C@]4(C)[C@@]3(F)[C@@H](O)C[C@]2(C)[C@@]1(O)C(=O)CO [Dex, Dexamethasone, reference compound]",IL-6/TNF-alpha,[2]; Dexamethasone 0.1 mg/kg,15.8 ± 8.7
same,IL-6 level,[2]; Dexamethasone 0.1 mg/kg,791.7 ± 234.3 pg/mL
same,Spleen index,[2]; Dexamethasone 0.1 mg/kg,7.9 ± 1.7 mg/g
same,TNFa level,[2]; Dexamethasone 0.1 mg/kg,92.4 ± 42.1 pg/mL
same,The length of colon,[2]; Dexamethasone 0.1 mg/kg,9.9 ± 1.2 cm
same,Thymus index,[2]; Dexamethasone 0.1 mg/kg,0.9 ± 0.4 mg/g
same,number of animals with bloody stools,[2]; Dexamethasone 0.1 mg/kg,8/12
same,number of animals with fecal occult blood (3rd day),[2]; Dexamethasone 0.1 mg/kg,9/12
same,White blood cell count,[2]; Dexamethasone 0.1 mg/kg,5.0 ± 2.6# X10^9
same,Macrohage cell count,[2]; Dexamethasone 0.1 mg/kg,24.4 ± 5.7 X10^5
